From PubChem BioAssay AID1918949 (Molecular Pharmacology Branch, DTP, NCI, 2023)

Tested on: K24384-001-R-PDC complex spheroid viability
Test: Anticancer human tumor K24384-001-R-PDC patient-derived pancreatic adenocarcinoma cell line growth inhibition
Conditions: for IC50: curve of first compound; for viability, T/C: stronger effect = lower value; active = viability on the fitted dose curve at most 10% of control; inactive = the rest
Outline: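 Multicellular complex spheroids of tumor cells with human endothelial cells (HUVEC) and mesenchymal stem cells; the LSD1 inhibitor iadademstat was combined with standard-of-care or investigational agents. Top concentration at or near clinical Cmax, half-log dilutions; final DMSO ≤0.25%.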

[1] = second compound 0.1 µM, first compound 0.0316 µM
[2] = second compound 0.1 µM, first compound 0.1 µM
[3] = second compound 0.1 µM, first compound 0.316 µM
[4] = second compound 0.1 µM, first compound 1 µM
[5] = second compound 0.1 µM, first compound 3.16 µM
[6] = second compound 0.1 µM, first compound 10 µM
[7] = second compound 0.316 µM, first compound 0.0316 µM
[8] = second compound 0.316 µM, first compound 0.1 µM
[9] = second compound 0.316 µM, first compound 0.316 µM
[10] = second compound 0.316 µM, first compound 1 µM
[11] = second compound 0.316 µM, first compound 3.16 µM
[12] = second compound 0.316 µM, first compound 10 µM
[13] = second compound 1 µM, first compound 0.0316 µM
[14] = second compound 1 µM, first compound 0.1 µM
[15] = second compound 1 µM, first compound 0.316 µM
[16] = second compound 1 µM, first compound 1 µM
[17] = second compound 1 µM, first compound 3.16 µM
[18] = second compound 1 µM, first compound 10 µM
[19] = second compound 3.16 µM, first compound 0.0316 µM
[20] = second compound 3.16 µM, first compound 0.1 µM
[21] = second compound 3.16 µM, first compound 0.316 µM
[22] = second compound 3.16 µM, first compound 1 µM
[23] = second compound 3.16 µM, first compound 3.16 µM
[24] = second compound 3.16 µM, first compound 10 µM
[25] = second compound 10 µM, first compound 0.0316 µM
[26] = second compound 10 µM, first compound 0.1 µM
[27] = second compound 10 µM, first compound 0.316 µM
[28] = second compound 10 µM, first compound 1 µM
[29] = second compound 10 µM, first compound 3.16 µM
[30] = second compound 10 µM, first compound 10 µM
[31] = second compound 0.1 µM, first compound 0.00949 µM
[32] = second compound 0.1 µM, first compound 0.03 µM
[33] = second compound 0.1 µM, first compound 0.0949 µM
[34] = second compound 0.1 µM, first compound 0.3 µM
[35] = second compound 0.316 µM, first compound 0.00949 µM
[36] = second compound 0.316 µM, first compound 0.03 µM
[37] = second compound 0.316 µM, first compound 0.0949 µM
[38] = second compound 0.316 µM, first compound 0.3 µM
[39] = second compound 1 µM, first compound 0.00949 µM
[40] = second compound 1 µM, first compound 0.03 µM
[41] = second compound 1 µM, first compound 0.0949 µM
[42] = second compound 1 µM, first compound 0.3 µM
[43] = second compound 3.16 µM, first compound 0.00949 µM
[44] = second compound 3.16 µM, first compound 0.03 µM
[45] = second compound 3.16 µM, first compound 0.0949 µM
[46] = second compound 3.16 µM, first compound 0.3 µM
[47] = second compound 10 µM, first compound 0.00949 µM
[48] = second compound 10 µM, first compound 0.03 µM
[49] = second compound 10 µM, first compound 0.0949 µM
[50] = second compound 10 µM, first compound 0.3 µM
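Also: spheroids exposed to agents for seven days before luminescence viability reading.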
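For viability, T/C in this document: 100% = DMSO vehicle control viability.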

CC1(C)CCC(CN2CCN(c3ccc(C(=O)NS(=O)(=O)c4ccc(NCC5CCOCC5)c([N+](=O)[O-])c4)c(Oc4cnc5[nH]ccc5c4)c3)CC2)=C(c2ccc(Cl)cc2)C1 + NC1CC1c1ccc(-c2cccc(O)c2)cc1
2690 nM: IC50 (second compound 3.16 µM)
3350 nM: IC50 (second compound 0.1 µM)
2600 nM: IC50 (second compound 0.316 µM)
inactive: viability, T/C [1] 90.7% | viability, T/C [2] 83.9% | viability, T/C [3] 88.3% | viability, T/C [4] 87.6% | viability, T/C [5] 52.6% | viability, T/C [7] 82.7% | viability, T/C [8] 76.7% | viability, T/C [9] 90% | viability, T/C [10] 80.4% | viability, T/C [11] 43.7% | viability, T/C [13] 91.5% | viability, T/C [14] 63.7% | viability, T/C [15] 63.8% | viability, T/C [16] 83.3% | viability, T/C [17] 45.7% | viability, T/C [19] 83.3% | viability, T/C [20] 93.2% | viability, T/C [21] 78.8% | viability, T/C [22] 71% | viability, T/C [23] 46.9% | viability, T/C [25] 86.3% | viability, T/C [26] 81.5% | viability, T/C [27] 67.9% | viability, T/C [28] 62.4% | viability, T/C [29] 44.4%
active: viability, T/C [6] 0.98% | viability, T/C [12] 1.07% | viability, T/C [18] 0.94% | viability, T/C [24] 0.99% | viability, T/C [30] 1%
1950 nM: IC50 (second compound 10 µM)
2680 nM: IC50 (second compound 1 µM)

CC1COCCN1c1cc(C2(S(C)(=N)=O)CC2)nc(-c2ccnc3[nH]ccc23)n1 (stereo not given) + NC1CC1c1ccc(-c2cccc(O)c2)cc1
1550 nM: IC50 (second compound 0.1 µM)
1320 nM: IC50 (second compound 3.16 µM)
1180 nM: IC50 (second compound 1 µM)
776 nM: IC50 (second compound 10 µM)
inactive: viability, T/C [1] 89.4% | viability, T/C [2] 108% | viability, T/C [3] 95.3% | viability, T/C [4] 58.8% | viability, T/C [5] 33.7% | viability, T/C [6] 38.1% | viability, T/C [7] 85.8% | viability, T/C [8] 85.9% | viability, T/C [9] 72.3% | viability, T/C [10] 57.7% | viability, T/C [11] 34% | viability, T/C [12] 36.4% | viability, T/C [13] 79.5% | viability, T/C [14] 73.9% | viability, T/C [15] 76.5% | viability, T/C [16] 53% | viability, T/C [17] 29.1% | viability, T/C [18] 34.1% | viability, T/C [19] 82.4% | viability, T/C [20] 77.4% | viability, T/C [21] 73.2% | viability, T/C [22] 56.7% | viability, T/C [23] 27.9% | viability, T/C [24] 32% | viability, T/C [25] 87.7% | viability, T/C [26] 81.5% | viability, T/C [27] 70% | viability, T/C [28] 45.2% | viability, T/C [29] 29.1% | viability, T/C [30] 31.1%
1380 nM: IC50 (second compound 0.316 µM)

CCN(c1cc(-c2ccc(CN3CCOCC3)cc2)cc(C(=O)NCc2c(C)cc(C)[nH]c2=O)c1C)C1CCOCC1 + NC1CC1c1ccc(-c2cccc(O)c2)cc1
> 3000 nM: IC50 (second compound 0.1 µM) | IC50 (second compound 0.316 µM) | IC50 (second compound 1 µM) | IC50 (second compound 3.16 µM) | IC50 (second compound 10 µM)
inactive: viability, T/C [31] 113% | viability, T/C [32] 115% | viability, T/C [33] 102% | viability, T/C [34] 103% | viability, T/C (second compound 0.1 µM, first compound 0.949 µM) 98.9% | viability, T/C (second compound 0.1 µM, first compound 3 µM) 62.8% | viability, T/C [35] 113% | viability, T/C [36] 104% | viability, T/C [37] 118% | viability, T/C [38] 103% | viability, T/C (second compound 0.316 µM, first compound 0.949 µM) 94.2% | viability, T/C (second compound 0.316 µM, first compound 3 µM) 71.8% | viability, T/C [39] 100% | viability, T/C [40] 112% | viability, T/C [41] 107% | viability, T/C [42] 95.8% | viability, T/C (second compound 1 µM, first compound 0.949 µM) 96.7% | viability, T/C (second compound 1 µM, first compound 3 µM) 65.5% | viability, T/C [43] 109% | viability, T/C [44] 126% | viability, T/C [45] 108% | viability, T/C [46] 111% | viability, T/C (second compound 3.16 µM, first compound 0.949 µM) 96.2% | viability, T/C (second compound 3.16 µM, first compound 3 µM) 69.7% | viability, T/C [47] 127% | viability, T/C [48] 132% | viability, T/C [49] 109% | viability, T/C [50] 127% | viability, T/C (second compound 10 µM, first compound 0.949 µM) 104% | viability, T/C (second compound 10 µM, first compound 3 µM) 77.6%

Nc1ncn(C2CC(O)C(CO)S2)c(=O)n1 (stereo not given) + NC1CC1c1ccc(-c2cccc(O)c2)cc1
inactive: viability, T/C (second compound 0.1 µM, first compound 0.000949 µM) 102% | viability, T/C (second compound 0.1 µM, first compound 0.003 µM) 133% | viability, T/C [31] 101% | viability, T/C [32] 89.8% | viability, T/C [33] 67.3% | viability, T/C [34] 54.9% | viability, T/C (second compound 0.316 µM, first compound 0.000949 µM) 102% | viability, T/C (second compound 0.316 µM, first compound 0.003 µM) 97.1% | viability, T/C [35] 103% | viability, T/C [36] 87.1% | viability, T/C [37] 72.2% | viability, T/C [38] 52.1% | viability, T/C (second compound 1 µM, first compound 0.000949 µM) 124% | viability, T/C (second compound 1 µM, first compound 0.003 µM) 110% | viability, T/C [39] 99.2% | viability, T/C [40] 87.8% | viability, T/C [41] 73.1% | viability, T/C [42] 50.6% | viability, T/C (second compound 3.16 µM, first compound 0.000949 µM) 108% | viability, T/C (second compound 3.16 µM, first compound 0.003 µM) 113% | viability, T/C [43] 108% | viability, T/C [44] 108% | viability, T/C [45] 92.6% | viability, T/C [46] 56.2% | viability, T/C (second compound 10 µM, first compound 0.000949 µM) 136% | viability, T/C (second compound 10 µM, first compound 0.003 µM) 131% | viability, T/C [47] 120% | viability, T/C [48] 108% | viability, T/C [49] 95.3% | viability, T/C [50] 57.2%
> 300 nM: IC50 (second compound 0.1 µM) | IC50 (second compound 0.316 µM) | IC50 (second compound 1 µM) | IC50 (second compound 3.16 µM) | IC50 (second compound 10 µM)

O=C(C=Cn1cnc(-c2cc(C(F)(F)F)cc(C(F)(F)F)c2)n1)NNc1cnccn1 + NC1CC1c1ccc(-c2cccc(O)c2)cc1
21.2 nM: IC50 (second compound 3.16 µM)
22.4 nM: IC50 (second compound 1 µM)
23.7 nM: IC50 (second compound 0.316 µM)
inactive: viability, T/C (second compound 0.1 µM, first compound 0.00316 µM) 68.8% | viability, T/C (second compound 0.1 µM, first compound 0.01 µM) 72.3% | viability, T/C [1] 46.5% | viability, T/C [2] 28.7% | viability, T/C [3] 24.7% | viability, T/C [4] 20.6% | viability, T/C (second compound 0.316 µM, first compound 0.00316 µM) 68.2% | viability, T/C (second compound 0.316 µM, first compound 0.01 µM) 72.8% | viability, T/C [7] 42.7% | viability, T/C [8] 30.2% | viability, T/C [9] 21.6% | viability, T/C [10] 20.3% | viability, T/C (second compound 1 µM, first compound 0.00316 µM) 67.1% | viability, T/C (second compound 1 µM, first compound 0.01 µM) 77% | viability, T/C [13] 40.6% | viability, T/C [14] 27.3% | viability, T/C [15] 22.7% | viability, T/C [16] 19% | viability, T/C (second compound 3.16 µM, first compound 0.00316 µM) 80.9% | viability, T/C (second compound 3.16 µM, first compound 0.01 µM) 65.4% | viability, T/C [19] 42% | viability, T/C [20] 26% | viability, T/C [21] 21.7% | viability, T/C [22] 19.5% | viability, T/C (second compound 10 µM, first compound 0.00316 µM) 80.6% | viability, T/C (second compound 10 µM, first compound 0.01 µM) 81.9% | viability, T/C [25] 46% | viability, T/C [26] 30.7% | viability, T/C [27] 26.7% | viability, T/C [28] 24.5%
27.8 nM: IC50 (second compound 10 µM)
27.7 nM: IC50 (second compound 0.1 µM)
